Measurements from ChEMBL document CHEMBL1201862, “PubChem BioAssay data set” (2004).
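In this assay, cells in 96-well plates receive the compound at five concentrations for 48 hours. Endpoints are linearly interpolated between the surrounding concentrations. GI50 is the concentration that inhibits growth by half.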 Activity calls are given as the source filed them. Cut-off read from the data, not from the text of the source: active = GI50 up to about 1.1 µM and inactive = higher.

Experiments:
Assay in all cases: NCI-60 cell line screen, 48 h
A498 = test system: A498
COLO 205 = test system: COLO 205
Hs-578T = test system: Hs-578T
K562 = test system: K562
KM12 = test system: KM12
M14 = test system: M14
MDA-MB-435 = test system: MDA-MB-435
NCI-H226 = test system: NCI-H226
NCI/ADR-RES = test system: NCI/ADR-RES
OVCAR-8 = test system: OVCAR-8
SF-268 = test system: SF-268
SF-539 = test system: SF-539
SK-OV-3 = test system: SK-OV-3
SR = test system: SR
SW-620 = test system: SW-620
T47D = test system: T47D
UACC-257 = test system: UACC-257
UACC-62 = test system: UACC-62
HT-29 = test system: HT-29

Measured: GI50

C#CCOC(=O)c1ccccc1O
inactive: A498 > 100 µM | COLO 205 > 100 µM | Hs-578T > 100 µM | K562 > 100 µM | KM12 > 100 µM | M14 > 100 µM | MDA-MB-435 > 100 µM | NCI-H226 > 100 µM | NCI/ADR-RES > 100 µM | OVCAR-8 > 100 µM | SF-268 > 100 µM | SF-539 > 100 µM | SK-OV-3 > 100 µM | SR > 100 µM | SW-620 > 100 µM | T47D > 100 µM | UACC-257 > 100 µM | UACC-62 > 100 µM

C=CCOc1ccc(C2(O)c3ccccc3C3=NCCCN32)cc1 (stereo unspecified)
inactive: A498 > 100 µM | COLO 205 19.9 µM | HT-29 > 65.9 µM | Hs-578T > 73.8 µM | K562 32.4 µM | KM12 44.5 µM | M14 18.1 µM | MDA-MB-435 30.1 µM | NCI-H226 > 77.1 µM | NCI/ADR-RES > 100 µM | OVCAR-8 > 100 µM | SF-268 > 61.4 µM | SF-539 56 µM | SK-OV-3 > 95.9 µM | SR 25.2 µM | SW-620 44 µM | T47D 27.9 µM | UACC-257 21.4 µM | UACC-62 25.7 µM

COC(=O)C(=O)C(C(=O)OC)C(=O)C(=O)Nc1ccccc1C(N)=O (stereo unspecified)
inactive: A498 > 100 µM | HT-29 > 100 µM | Hs-578T > 100 µM | KM12 > 100 µM | M14 > 100 µM | MDA-MB-435 > 100 µM | NCI-H226 > 100 µM | NCI/ADR-RES > 100 µM | OVCAR-8 > 100 µM | SF-268 > 100 µM | SF-539 > 100 µM | SK-OV-3 > 100 µM | SR > 100 µM | SW-620 > 100 µM | T47D > 100 µM | UACC-257 > 100 µM | UACC-62 > 100 µM

Cc1ccc(-c2n[nH]c(=O)n2N)cc1
inactive: A498 > 100 µM | COLO 205 > 100 µM | HT-29 > 100 µM | Hs-578T > 100 µM | K562 > 100 µM | KM12 > 100 µM | M14 > 100 µM | MDA-MB-435 > 100 µM | NCI-H226 > 100 µM | NCI/ADR-RES > 100 µM | OVCAR-8 > 100 µM | SF-268 > 100 µM | SF-539 > 100 µM | SK-OV-3 > 100 µM | SR > 100 µM | SW-620 > 100 µM | T47D > 100 µM | UACC-257 > 100 µM | UACC-62 > 100 µM

C=C1C(=O)O[C@@H]2/C=C(/C)[C@@H](OC(C)=O)C/C=C(\C)C(O)[C@@H](OC(=O)/C(C)=C\C)C12 (stereo partly specified)
inactive: A498 51.3 µM | COLO 205 18.1 µM | HT-29 20.6 µM | Hs-578T 56.2 µM | K562 22.6 µM | KM12 68.7 µM | M14 33.1 µM | MDA-MB-435 20.4 µM | NCI-H226 > 100 µM | NCI/ADR-RES 32.7 µM | OVCAR-8 26.8 µM | SF-268 38.3 µM | SF-539 34.4 µM | SK-OV-3 > 100 µM | SR 17.3 µM | SW-620 16.5 µM | T47D 19.6 µM | UACC-257 37.2 µM | UACC-62 26.4 µM

COc1ccc(C2CC(c3c(C)nn(-c4ccccc4)c3-c3ccc(C)cc3O)=NN2c2ccccc2)cc1 (stereo unspecified)
inactive: A498 > 100 µM | COLO 205 12.7 µM | Hs-578T 10.4 µM | K562 7.13 µM | KM12 3.33 µM | M14 14.2 µM | MDA-MB-435 15 µM | NCI-H226 > 24 µM | NCI/ADR-RES 21.9 µM | OVCAR-8 20.4 µM | SF-268 > 73.6 µM | SF-539 > 78.5 µM | SK-OV-3 > 100 µM | SR 13.3 µM | SW-620 20.5 µM | T47D 9.57 µM | UACC-257 67.3 µM | UACC-62 23 µM

O=[N+]([O-])c1ccc(Cl)cc1C1ON=C(c2ccccc2)N1C12CC3CC(CC(C3)C1)C2 (stereo unspecified)
inactive: A498 > 100 µM | COLO 205 > 100 µM | HT-29 > 100 µM | Hs-578T > 100 µM | K562 > 100 µM | M14 > 100 µM | MDA-MB-435 > 100 µM | NCI-H226 64.3 µM | NCI/ADR-RES > 100 µM | SF-268 > 100 µM | SF-539 > 100 µM | SK-OV-3 > 100 µM | SR > 100 µM | T47D > 100 µM | UACC-257 > 100 µM | UACC-62 > 100 µM

CC(=O)OC1CCC2(C)C(=CC(C3C=C4CC(OC(C)=O)CCC4(C)C4=C3C3CC5OC6(CCC(C)CO6)C(C)C5C3(C)CC4)C3=C2CCC2(C)C3CC3OC4(CCC(C)CO4)C(C)C32)C1 (stereo unspecified)
inactive: A498 17.1 µM | COLO 205 17.6 µM | HT-29 14 µM | Hs-578T 2.61 µM | K562 4.43 µM | KM12 18.2 µM | M14 14 µM | MDA-MB-435 14.1 µM | NCI-H226 23 µM | NCI/ADR-RES 17.2 µM | OVCAR-8 11.1 µM | SF-268 11.4 µM | SK-OV-3 16.3 µM | SR 11.9 µM | T47D 15.5 µM | UACC-257 10.2 µM | UACC-62 13.4 µM

C=C(C)[C@H]1C2=CC(C)=C(O2)[C@@H](O[C@@H]2c3oc(cc3C)[C@H](C(=C)C)[C@H]3C=C(CC[C@H]2C(=C)C)C(=O)O3)[C@H](C(=C)C)CCC2=C[C@H]1OC2=O
inactive: A498 > 100 µM | COLO 205 > 100 µM | Hs-578T > 100 µM | K562 > 100 µM | KM12 > 100 µM | M14 > 100 µM | MDA-MB-435 > 100 µM | NCI-H226 > 100 µM | NCI/ADR-RES > 100 µM | OVCAR-8 > 100 µM | SF-268 > 100 µM | SK-OV-3 > 100 µM | SR > 100 µM | SW-620 > 100 µM | T47D > 100 µM | UACC-257 > 100 µM | UACC-62 > 100 µM

OC1c2ccccc2CCC1C(O)(C(F)(F)F)C(F)(F)F (stereo unspecified)
inactive: A498 > 100 µM | COLO 205 > 100 µM | HT-29 > 100 µM | Hs-578T > 100 µM | K562 > 100 µM | KM12 > 100 µM | M14 > 100 µM | MDA-MB-435 > 100 µM | NCI-H226 38.4 µM | NCI/ADR-RES > 100 µM | OVCAR-8 > 100 µM | SF-268 > 100 µM | SF-539 > 100 µM | SK-OV-3 > 100 µM | SR > 100 µM | SW-620 > 100 µM | T47D > 100 µM | UACC-62 > 100 µM

Nc1cccc2cc(S(=O)(=O)Nc3ccc(C(=O)O)cc3)ccc12
inactive: A498 > 100 µM | COLO 205 > 100 µM | HT-29 > 100 µM | Hs-578T > 100 µM | K562 > 100 µM | KM12 > 100 µM | M14 > 100 µM | MDA-MB-435 > 100 µM | NCI-H226 > 100 µM | NCI/ADR-RES > 100 µM | OVCAR-8 > 100 µM | SF-268 > 100 µM | SK-OV-3 > 100 µM | SR > 100 µM | SW-620 > 100 µM | T47D > 100 µM | UACC-257 > 100 µM | UACC-62 > 100 µM

O=c1c2c3c(sc2nc2n1N=CN(c1ccc(F)cc1)C2)CCCC3
inactive: A498 > 100 µM | COLO 205 > 100 µM | HT-29 > 100 µM | Hs-578T > 100 µM | K562 > 100 µM | KM12 > 100 µM | M14 > 100 µM | MDA-MB-435 > 100 µM | NCI-H226 > 100 µM | NCI/ADR-RES > 100 µM | OVCAR-8 > 100 µM | SF-268 > 100 µM | SK-OV-3 > 100 µM | SR > 100 µM | SW-620 > 100 µM | T47D > 100 µM | UACC-257 > 100 µM | UACC-62 > 100 µM

O=C(Nc1ccccn1)c1cc2c(cc1Cl)Sc1nccn1S2(=O)=O
inactive: A498 45 µM | COLO 205 33.5 µM | HT-29 31.1 µM | Hs-578T > 100 µM | K562 32.3 µM | KM12 33.6 µM | M14 48.9 µM | MDA-MB-435 27.9 µM | NCI-H226 24.2 µM | NCI/ADR-RES 31 µM | OVCAR-8 37.8 µM | SF-268 37.8 µM | SK-OV-3 38.1 µM | SR 29.4 µM | SW-620 45 µM | T47D 20.7 µM | UACC-257 33.7 µM | UACC-62 42 µM

Cn1c2ccccc2n2c3ncccc3c(=S)c(C#N)c12
inactive: A498 > 100 µM | COLO 205 > 100 µM | HT-29 > 100 µM | Hs-578T > 100 µM | K562 > 100 µM | KM12 > 100 µM | M14 > 100 µM | MDA-MB-435 > 100 µM | NCI-H226 > 100 µM | NCI/ADR-RES > 100 µM | OVCAR-8 > 100 µM | SF-268 > 100 µM | SK-OV-3 > 100 µM | SR 71.4 µM | SW-620 > 100 µM | T47D > 100 µM | UACC-62 > 100 µM

CC(C)=C[C@H]1C[C@H](C)[C@H]2CC[C@H](C)c3c2c1c(C)c1ncoc31
inactive: A498 19.9 µM | COLO 205 16.7 µM | Hs-578T 17.6 µM | K562 21.4 µM | KM12 17.7 µM | M14 15 µM | MDA-MB-435 17.8 µM | NCI-H226 16.8 µM | NCI/ADR-RES 17 µM | OVCAR-8 19.2 µM | SF-268 19.5 µM | SF-539 16.4 µM | SR 14.1 µM | SW-620 15.3 µM | T47D 17.8 µM | UACC-257 18.4 µM | UACC-62 18.3 µM
